In US7579356B2, “Thia-tetraazaacenaphthylene kinase inhibitors” (Janssen Pharmaceutica NV, priority 2005, dated 2009):
pIC50: −log10 of the molar value.

How the values were obtained:
[1] = tested on: HeLa cervical adenocarcinoma; test: Cell Proliferation Inhibition Assay, Hela (ATP Lite); assay type: cell-based; settings: Homo sapiens, ATP-Lite method
Description: (§1) Cell Proliferation Inhibition Assay
(§2) The ability of a test compound to inhibit unregulated cell proliferation may be determined by measuring incorporation of ^14C-labelled thymidine into newly synthesized DNA within cell lines derived from carcinomas originating from several tissues. Accordingly, the effect of a test compound on proliferation of cells with a variety of phenotypes may be determined.
(§3) Carcinoma cell lines used include the HeLa cervical adenocarcinoma from the American Type Culture Collection (ATCC Cat. #CCL2), A375 malignant melanoma (ATCC Cat. #CRL-1619), HCT-116 colon carcinoma (ATCC Cat. #CCL-247), SKBR3 breast carcinoma (ATCC Cat. #HTB-30) and BT474 breast carcinoma (ATCC Cat. #HTB-20).
(§4) The carcinoma cells were trypsinized and counted. The cells (3000-8000 count) were added to each well of a 96-well CytoStar tissue culture treated scintillating microplate (Amersham #RPNQ0160) in complete medium (100 μL) and the plate was then incubated in complete medium for 24 hrs at 37° C. in an inert atmosphere containing 5% CO2.
(§5) Test compound (1 μL) in 100% DMSO was added to the plate test-wells with DMSO only added to control-wells. The plate was incubated in complete medium for a second 24 hr period at 37° C. in an atmosphere containing 5% CO2.
(§6) Cell proliferation of the Hela cell line was measured using the ATP-Lite method as described in the ATP Lite Kit (Perkin-Elmer Kit Number 6106941) or the C^14 method as described above. Cell proliferation of the other cell lines was measured using the C^14 method.

[2] = tested on: HCT-116 colon carcinoma; test: Cell Proliferation Inhibition Assay, HCT-116 (14C-thymidine); assay type: cell-based; settings: Homo sapiens, HCT-116 cell proliferation
Description: as §1, §2, §3, §4, §5
(§7) An aliquot of a solution of Methyl ^14C-thymidine (56 mC/mmol) (NEN #NEC568 or AMersham #CFA532) and complete medium (20 uL to provide 0.2 μCl/well) was then added to each well and the plate was incubated for a third 24 hr period at 37° C. in an atmosphere containing 5% CO2.
(§8) The plate contents were then discarded, the plate washed twice with PBS (200 μL) and then PBS (200 μL) was added to each well. The plate was sealed and the degree of methyl ^14C-thymidine incorporation was quantified on a Packard Top Count.
as §6

[3] = tested on: SKBR3 breast carcinoma; test: Cell Proliferation Inhibition Assay, SKBR3 (14C-thymidine); assay type: cell-based; settings: Homo sapiens, SK-BR-3, C14 method
Description: as §1, §2, §3, §4, §5, §7, §8, §6

[4] = tested on: BT474 breast carcinoma; test: Cell Proliferation Inhibition Assay, BT474 (14C-thymidine); assay type: cell-based; settings: Homo sapiens, BT-474, C14 method
Description: as §1, §2, §3, §4, §5, §7, §8, §6

[5] = molecular target: T1, EGFR (Homo sapiens, UniProt P00533); test: EGFR Kinase Assay; assay type: biochemical; settings: for pIC50: GST-EGFR, ATP 5 μM; for inhibition at 2 µM: test concentration of 2 μM, compounds without an IC50, read-out: EGFR inhibition in percent
T1 construct: The intracellular portion of EGFR started at nucleotide 2189 (corresponding to amino acid 667) and ended at the termination codon; made in house; host or cells: Sf9 insect cells (baculovirus)
Method in brief: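 GST-fused human EGFR intracellular domain (from aa 667), Sf9-expressed, phosphorylated biotinylated polyGluTyr with 5 μM ATP plus γ-33P ATP in Tris pH 8.0, MgCl2, vanadate, 1 mM DTT, 1 h at 30 °C. Streptavidin Flashplate scintillation read; triplicate 16-point half-log series from 200 uM; IC50 from % inhibition vs log concentration, else % inhibition at 2 μM.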

T1 sequence (P00533 669-1210 limits assumed): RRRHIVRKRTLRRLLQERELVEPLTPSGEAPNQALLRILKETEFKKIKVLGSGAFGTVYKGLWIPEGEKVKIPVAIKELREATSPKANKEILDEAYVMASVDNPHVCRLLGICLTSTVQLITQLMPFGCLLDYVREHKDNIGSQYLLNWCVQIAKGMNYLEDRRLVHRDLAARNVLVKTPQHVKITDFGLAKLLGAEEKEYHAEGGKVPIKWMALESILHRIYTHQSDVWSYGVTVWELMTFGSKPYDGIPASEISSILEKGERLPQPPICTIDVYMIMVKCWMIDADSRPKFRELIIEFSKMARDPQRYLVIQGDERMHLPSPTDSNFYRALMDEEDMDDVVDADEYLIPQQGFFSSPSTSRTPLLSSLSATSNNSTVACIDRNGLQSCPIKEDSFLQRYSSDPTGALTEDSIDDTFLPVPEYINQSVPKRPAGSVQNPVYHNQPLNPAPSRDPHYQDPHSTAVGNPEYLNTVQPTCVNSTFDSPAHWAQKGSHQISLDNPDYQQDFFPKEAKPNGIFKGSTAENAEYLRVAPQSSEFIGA

SMILES | pIC50 [1] | pIC50 [2] | pIC50 [3] | pIC50 [4] | pIC50 [5] | inhibition at 2 µM [5] [%]
O=C(Nc1ccc(CN2CCOCC2)cc1)c1sc2ncnc3c2c1NC(=O)N3c1cccc(Br)c1 [Cpd 36, 5-(3-bromo-phenyl)-4-oxo-4,5-dihydro-3H-1-thia-3,5,6,8-tetraaza-acenaphthylene-2-carboxylic acid (4-morpholin-4-ylmethyl-phenyl)-amide] | 4.00 | 4.17 | 4.00 | ≤ 4.00 | 6.74 | –
O=C(O)c1sc2ncnc3c2c1NC(=O)N3c1ccc(OCc2ccccn2)c(Cl)c1 [Cpd 38, 5-[3-chloro-4-(pyridin-2-ylmethoxy)-phenyl]-4-oxo-4,5-dihydro-3H-1-thia-3,5,6,8-tetraaza-acenaphthylene-2-carboxylic acid] | 4.00 | 4.00 | 4.00 | ≤ 4.00 | 6.04 | –
COc1ccc(NC(=O)c2sc3ncnc4c3c2NC(=O)N4c2ccc(OCc3ccccn3)c(Cl)c2)cc1OC [Cpd 48, 5-[3-chloro-4-(pyridin-2-ylmethoxy)-phenyl]-4-oxo-4,5-dihydro-3H-1-thia-3,5,6,8-tetraaza-acenaphthylene-2-carboxylic acid (3,4-dimethoxy-phenyl)-amide] | 4.00 | 4.52 | 4.00 | ≤ 5.00 | 7.21 | –
O=C(Nc1ccc(CN2CCOCC2)cc1)c1sc2ncnc3c2c1NC(=O)N3c1ccc(OCc2ccccn2)c(Cl)c1 [Cpd 52, 5-[3-chloro-4-(pyridin-2-ylmethoxy)-phenyl]-4-oxo-4,5-dihydro-3H-1-thia-3,5,6,8-tetraaza-acenaphthylene-2-carboxylic acid (4-morpholin-4-ylmethyl-phenyl)-amide] | 4.57 | 4.00 | 5.58 | 5.22 | 7.29 | –
O=C(Nc1ccc(NCCCN2CCOCC2)nc1)c1sc2ncnc3c2c1NC(=O)N3c1cccc(Br)c1 [Cpd 64, 5-(3-bromo-phenyl)-4-oxo-4,5-dihydro-3H-1-thia-3,5,6,8-tetraaza-acenaphthylene-2-carboxylic acid [6-(3-morpholin-4-yl-propylamino)-pyridin-3-yl]-amide] | 5.00 | – | 4.00 | ≤ 5.00 | 6.80 | –
O=C(NCCN1CCOCC1)c1sc2ncnc3c2c1NC(=O)N3c1ccc2c(ccn2Cc2cccc(F)c2)c1 [Cpd 93, 5-[1-(3-fluoro-benzyl)-1H-indol-5-yl]-4-oxo-4,5-dihydro-3H-1-thia-3,5,6,8-tetraaza-acenaphthylene-2-carboxylic acid (2-morpholin-4-yl-ethyl)-amide] | – | 5.00 | – | – | 7.15 | –
O=C(Nc1ccc(N2CCOCC2)cc1)c1sc2ncnc3c2c1NC(=O)N3c1ccc2c(ccn2Cc2cccc(F)c2)c1 [Cpd 94, 5-[1-(3-fluoro-benzyl)-1H-indol-5-yl]-4-oxo-4,5-dihydro-3H-1-thia-3,5,6,8-tetraaza-acenaphthylene-2-carboxylic acid (4-morpholin-4-yl-phenyl)-amide] | – | 4.00 | – | – | 6.58 | –
O=C(NCCCN1CCOCC1)c1sc2ncnc3c2c1NC(=O)N3c1ccc2c(ccn2Cc2cccc(F)c2)c1 [Cpd 95, 5-[1-(3-fluoro-benzyl)-1H-indol-5-yl]-4-oxo-4,5-dihydro-3H-1-thia-3,5,6,8-tetraaza-acenaphthylene-2-carboxylic acid (3-morpholin-4-yl-propyl)-amide] | – | 5.00 | – | – | 7.16 | –
CCOC(=O)c1sc2ncnc3c2c1NC(=O)N3c1ccc(Oc2ccc(F)cc2)cc1 [Cpd 101, 5-[4-(4-fluoro-phenoxy)-phenyl]-4-oxo-4,5-dihydro-3H-1-thia-3,5,6,8-tetraaza-acenaphthylene-2-carboxylic acid ethyl ester] | – | 4.00 | – | – | – | 18
CCOC(=O)c1sc2ncnc3c2c1NC(=O)N3c1ccc(C)c(Br)c1 [Cpd 102, 5-(3-bromo-4-methyl-phenyl)-4-oxo-4,5-dihydro-3H-1-thia-3,5,6,8-tetraaza-acenaphthylene-2-carboxylic acid ethyl ester] | – | 4.00 | – | – | – | 17
CCOC(=O)c1sc2ncnc3c2c1NC(=O)N3c1cc(Br)ccc1C [Cpd 103, 5-(5-bromo-2-methyl-phenyl)-4-oxo-4,5-dihydro-3H-1-thia-3,5,6,8-tetraaza-acenaphthylene-2-carboxylic acid ethyl ester] | – | 4.00 | – | – | – | 21

Further lines, results first:

pIC50 [1] | pIC50 [2] | pIC50 [3] | pIC50 [4] | pIC50 [5] | inhibition at 2 µM [5] [%] | SMILES
– | 4.00 | – | – | 7.37 | – | Cc1ccc(N2C(=O)Nc3c(C(=O)Nc4ccc(CN5CCOCC5)cc4)sc4ncnc2c34)cc1Br [Cpd 108, 5-(3-bromo-4-methyl-phenyl)-4-oxo-4,5-dihydro-3H-1-thia-3,5,6,8-tetraaza-acenaphthylene-2-carboxylic acid (4-morpholin-4-ylmethyl-phenyl)-amide]
– | 5.00 | – | – | 6.46 | – | Cc1ccc(Br)cc1N1C(=O)Nc2c(C(=O)Nc3ccc(CN4CCOCC4)cc3)sc3ncnc1c23 [Cpd 109, 5-(5-bromo-2-methyl-phenyl)-4-oxo-4,5-dihydro-3H-1-thia-3,5,6,8-tetraaza-acenaphthylene-2-carboxylic acid (4-morpholin-4-ylmethyl-phenyl)-amide]
– | 5.00 | – | – | 7.47 | – | O=C(Nc1ccc(CN2CCOCC2)cc1)c1sc2ncnc3c2c1NC(=O)N3c1ccc(Oc2ccc(F)cc2)cc1 [Cpd 110, 5-[4-(4-fluoro-phenoxy)-phenyl]-4-oxo-4,5-dihydro-3H-1-thia-3,5,6,8-tetraaza-acenaphthylene-2-carboxylic acid (4-morpholin-4-ylmethyl-phenyl)-amide]
– | 5.00 | – | – | 6.84 | – | Cc1ccc(N2C(=O)Nc3c(C(=O)NC4CCN(C)CC4)sc4ncnc2c34)cc1Br [Cpd 116, 5-(3-bromo-4-methyl-phenyl)-4-oxo-4,5-dihydro-3H-1-thia-3,5,6,8-tetraaza-acenaphthylene-2-carboxylic acid (1-methyl-piperidin-4-yl)-amide]
– | 4.00 | – | – | 5.75 | – | Cc1ccc(Br)cc1N1C(=O)Nc2c(C(=O)NC3CCN(C)CC3)sc3ncnc1c23 [Cpd 117, 5-(5-bromo-2-methyl-phenyl)-4-oxo-4,5-dihydro-3H-1-thia-3,5,6,8-tetraaza-acenaphthylene-2-carboxylic acid (1-methyl-piperidin-4-yl)-amide]
– | 5.00 | – | – | 6.88 | – | CN1CCC(NC(=O)c2sc3ncnc4c3c2NC(=O)N4c2ccc(Oc3ccc(F)cc3)cc2)CC1 [Cpd 118, 5-[4-(4-fluoro-phenoxy)-phenyl]-4-oxo-4,5-dihydro-3H-1-thia-3,5,6,8-tetraaza-acenaphthylene-2-carboxylic acid (1-methyl-piperidin-4-yl)-amide]
5.37 | – | 6.84 | 6.42 | 7.54 | – | O=C(Nc1ccc(CN2CCCCC2)cc1)c1sc2ncnc3c2c1NC(=O)N3c1ccc(Sc2ccccc2)cc1 [Cpd 169, 4-oxo-5-(4-phenylsulfanyl-phenyl)-4,5-dihydro-3H-1-thia-3,5,6,8-tetraaza-acenaphthylene-2-carboxylic acid (4-piperidin-1-ylmethyl-phenyl)-amide]
4.27 | – | 6.53 | 6.80 | 7.11 | – | O=C(Nc1ccc(CN2CCOCC2)cc1)c1sc2ncnc3c2c1NC(=O)N3c1ccc(Sc2ccccc2)cc1 [Cpd 178, 4-oxo-5-(4-phenylsulfanyl-phenyl)-4,5-dihydro-3H-1-thia-3,5,6,8-tetraaza-acenaphthylene-2-carboxylic acid (4-morpholin-4-ylmethyl-phenyl)-amide]
